This is an account of results in PubChem BioAssay (NCI).

Structures are written as SMILES.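 Five compound concentrations were applied to cells in 96-well plates for 48 hours; endpoints were derived by simple linear interpolation of the resulting dose-response curve. At the TGI there is no net growth.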

What all share (assay): growth of human tumour cells (NCI), 48 h
In experiment [1] the test system is ACHN renal.
The subject of experiment [2] is K-562 leukemia.
In experiment [3] the test system is MCF7 breast.
Experiment [4] concerns MDA-N.
Experiment [5] deals with NCI-H522 lung.
Experiment [6] concerns OVCAR-4 ovarian.
For experiment [7], the system named is OVCAR-5 ovarian.
The subject of experiment [8] is SR leukemia.
For experiment [9], the system named is TK-10 renal.
Experiment [10] deals with U251 CNS.
In experiment [11] the test system is SK-MEL-28 melanoma.

On to `O=C(O)CN1CCN(CC(=O)O)CCN(CC(=O)O)CCN(CC(=O)O)CC1`, for which the TGI in experiment [1], in [2], in [3], in experiment [4], in experiment [5] and in [6] was over 100 µM each time. The TGI in experiment [7], in [8], in [9] and in [10] was over 100 µM each time.

Regarding `CC(=O)OC1COC(n2c(N)c(C#N)c(C)c(C#N)c2=S)C(OC(C)=O)C1OC(C)=O` (centres undefined), the TGI in experiment [1], in experiment [2], in [3], in experiment [4], in [5] and in experiment [7] was over 100 µM each time. The TGI in experiment [11], in experiment [8] and in [9] was over 100 µM each time.

Take `N#CS/C(Cl)=C(/C(Cl)=C(Cl)Cl)[N+](=O)[O-]`: the TGI in [1], in experiment [2], in experiment [3], in experiment [4], in [6] and in experiment [7] was over 100 µM each time. For the same molecule, the TGI in experiment [11] is 86.5 µM; in experiment [8], 53.9 µM; in experiment [9] it was over 100 µM; in [10] it was over 100 µM.

For `Cc1cc2c(s1)C(=O)c1sccc1C2=O`, the TGI is 2.23 µM in [1]; 2.78 µM in [3]; 0.308 µM in experiment [4]; 1.38 µM in experiment [5]; 1.45 µM in experiment [6]; 3.29 µM in [7]. In addition, the TGI is 0.377 µM in experiment [11], over 100 µM in experiment [8], 6.91 µM in experiment [9] and 2.55 µM in [10].

On to `C[C@]12CC(c3ccccc3O1)C(C(=O)NC13CC4CC(CC(C4)C1)C3)C(=O)N2` (some centres undefined), for which the TGI in experiment [1] was over 100 µM; in experiment [2], 30.4 µM; in experiment [3] it was over 100 µM; in experiment [4], 43.8 µM; in experiment [5], over 100 µM; in experiment [6] it was over 100 µM. Besides, the TGI in [7] is 52.7 µM; in experiment [11], 64 µM; in [9], over 100 µM; in [10], over 100 µM.

Take `CNC(=O)c1n[nH][nH]c1=O`: the TGI in experiment [1], in experiment [2], in experiment [3], in experiment [4], in [5] and in experiment [7] was over 100 µM in each case. Moreover, the TGI in experiment [11], in experiment [8] and in experiment [10] was over 100 µM throughout.

Consider `CC(=O)c1ccc2c(c1)oc(=O)n2CCN1CCCCC1`, for which the TGI in experiment [1], in experiment [2], in experiment [3], in experiment [4], in [7] and in experiment [11] was over 100 µM each time. Further, the TGI in experiment [8], in experiment [9] and in experiment [10] was over 100 µM in each case.

As for `CCCNC(=S)/N=C\c1c(O)c2ccccc2oc1=O`, the TGI in experiment [1], in experiment [3], in experiment [4], in experiment [5], in experiment [6] and in [7] was over 100 µM each time. Also, the TGI in [11], in [8], in experiment [9] and in experiment [10] was over 100 µM throughout.

Consider `O=C(Cc1ccccc1)c1ccc2[nH]c(=O)oc2c1`, for which the TGI in experiment [1], in experiment [2], in experiment [3], in [4], in [7] and in [11] was over 100 µM each time. Also, the TGI in [8] is over 100 µM; in [9], over 100 µM; in experiment [10], 62.3 µM.

Turning to `N=C1C(=N)c2ccccc2-c2ccccc21`, the TGI in [1] was found to be 2.72 µM; in experiment [3], 2.27 µM; in [4] it was 0.325 µM; in experiment [5] it was 3.99 µM; in experiment [6] it was 2.78 µM; in [7], 3.43 µM. Further, the TGI in experiment [11] stood at 3.35 µM; in [8] it was 6.46 µM; in experiment [9], 3.01 µM; in experiment [10], 2.63 µM.

On to `NC1=NC(OCC2(CO)CCC2)C=C(NCC2(CO)CCC2)N1` (centres undefined), for which the TGI in experiment [2], in experiment [3], in [4], in [5], in experiment [6] and in [7] was over 100 µM each time. The TGI in experiment [11], in experiment [8] and in [10] was over 100 µM each time.

As to `CN(C)CCO/N=C1/C=C2CC[C@H]3[C@@H]4CC[C@H](O)[C@@]4(C)CC[C@@H]3[C@@]2(C)CC1`, the TGI in experiment [1] is 40.9 µM; in experiment [2] it was 56.8 µM; in [3] it was 86 µM; in experiment [4], 11.2 µM; in experiment [5], 13.7 µM; in [7], over 100 µM. For the same molecule, the TGI in [11] is 35.1 µM; in [8], 19.6 µM; in experiment [9], 28.6 µM; in [10] it was 27.5 µM.

With `CC(C)CCC[C@@H](C)C1CCC2[C@@H]3CCC4CC(CCC=C(c5cc(Cl)c(OC(=O)c6ccccc6)c(C(=O)O)c5)c5cc(Cl)c(OC(=O)c6ccccc6)c(C(=O)O)c5)CC[C@]4(C)C3CC[C@@]21C` (some centres undefined), the TGI in [1], in experiment [2], in [3], in experiment [4], in [5] and in experiment [6] was over 100 µM throughout. Further, the TGI in experiment [7], in [9] and in [10] was over 100 µM throughout.
